Data set [1] has as its system Plutella maculipennis (diamondback moth). Description: Plutella maculipennis (diamondback moth); ingestion-inhibiting action. It counts as in vivo. As to conditions: Plutella maculipennis 4th-stage caterpillars on dipped kohlrabi leaves, after 48 hours; application rate 400 ppm. The procedure: Young kohlrabi leaves are dipped for 3 seconds into aqueous solutions of the candidate compounds, and then placed on a round filter paper 9 cm in diameter which has been moistened with 0.5 ml of water. The filter paper is then placed in a Petri dish 10 cm in diameter. 10 caterpillars in the 4th larval stage are then placed on each leaf and the Petri dish is closed. Ingestion inhibition is determined in % after 48 hours.

In data set [2] the test system is Musca domestica (housefly). Description: Musca domestica (housefly); continuous contact action. It counts as in vivo. As to conditions: continuous contact in Petri dish, counted after 24 hours, application rate 0.1 ppm. The procedure:
Both the tops and bottoms of Petri dishes 10 cm in diameter were lined with a total of 1 ml of acetonic solutions of the active ingredients. After the solvent had evaporated (about 30 mins.), 10 files and absorbent cotton steeped in water were introduced into each dish and the dishes closed. The flies in supine position were counted after 24 hours.
If a kill rate of 80 to 100% occurs at a concentration of 0.01 mg/dish, the test is continued with falling concentrations.

Drawing on patent publication USRE37839E1, “O-benzyloxime ethers and crop protection agents containing these compounds” (BASF Aktiengesellschaft, priority 1990, dated 2002), this text covers Mortality in % for two compounds.

With `COC=C(C(=O)OC)c1ccccc1CON=C(C)c1cccc(C(F)(F)F)c1` [compound 705], the values for the Mortality in % in data set [1] and in data set [2] were 80% and 100%, respectively.

As to `COC=C(C(=O)OC)c1ccccc1CON=C(C)c1ccc(C(F)(F)F)cc1` [compound 706], the Mortality in % was 80% in data set [1] and 100% in data set [2].
